The source of these data is patent US20060018827A1, “Positron therapy of inflammation, infection and disease” (priority 2004, published 2006).

Structures are written as SMILES. Values joined by “and” are separate entries in the source; they are usually repeats but may differ in a detail not shown here. Identical values can stand only once.

Data set [1] relates to xenografted Notch tumor. Briefly: Treatment of Notch tumor-bearing mice with ^18F-FDG. The following applies: Notch tumor-bearing nude mice, 2.5 mCi i.p. In kind it is in vivo, mouse. As for the experimental part: (§1) Notch cell line. Mouse mammary gland cell line 5505 was derived from mammary tumors arising in transgenic mice which express an activated form of Notch 4 from the mouse mammary tumor virus long terminal repeat (MMTV-LTR) promoter/enhancer (Fitzgerald et al. 2000). This cell line is further referred to herein as Notch cells. The Notch cells were cultured in DMEM supplemented with 10% FCS, 10% NCTC-109, 1% non-essential amino acids, […] D-glucose and 1% penicillin-streptomycin.
(§2) Animals. All procedures involving mice were conducted in accordance with the National Institutes of Health regulations concerning the use and care of experimental animals. The study of mice was approved by the Albert Einstein College of Medicine (AECOM) Animal Use Committee. Transgenic mice expressing the polyoma middle T antigen (PyMT) in the mammary epithelium under the control of mouse mammary tumor virus (MMTV) long terminal repeat were provided by Dr. W. J. Muller (McMaster University, Ontario, Canada) and then bred at AECOM. At the age of 10 weeks these mice have multiple mammary tumors 0.15-0.17 cm in diameter. In mice older than 18 weeks the tumors are more than 1 cm in diameter. MMTV-NeuT mice (Muller et al. 1988), which carry erbB-2 (Neu), one of the better known human breast cancer oncogenes, were purchased from Jackson Laboratories. MMTV-NeuT mice were obtained as retired breeders and some of them developed mammary tumors at the age of 5 months, whereas others remained-tumor free until 6-7 months of age. C3H/B6 female mice lacking the PyMT transgene were used as healthy controls in therapy experiments. […]
Treatment of Notch tumor-bearing mice with ^18F-FDG. […] Animals were monitored for their vital signs and survival for 1 month. Their tumors were measured every 3 days with calipers in three perpendicular planes and the product of the three measurements was multiplied by 0.5 and expressed in cm^3. The growth rate for tumors in cm^3/day was calculated using the formula: […]/number of days survived. […]

Data set [2] relates to metastatic cancers. Briefly: FDG-PET SUVmax in patients with different types of metastatic cancer. It counts as in vivo, human. As for the experimental part: ^18F-FDG-PET in breast cancer patients with metastatic disease. Approval was obtained from the Albert Einstein College of Medicine Cancer Center Protocol Review Committee and the Montefiore Medical Center Institutional Review Board. Retrospectively, five consecutive patients with breast cancer and metastatic disease shown on ^18F-FDG-PET scanning were evaluated. After more than 4 hours of fasting, the patients were administered 3.5 mCi of ^18F-FDG, and rested during an uptake period of 45 minutes. The patients then underwent a whole-body scan on the CPET scanner. The scanning protocol consisted of 6 minutes of emission and two rotations of a ^137Cs source for transmission per bed position, and approximately six bed positions. Images were corrected for attenuation and reconstructed with the iterative method. To reduce volume averaging, a small round region of interest 12 pixels in size was drawn in the center of the tumor and in the center of normal liver. The diameter of the region was 14 mm. Standardized uptake values (SUVs) were calculated for all regions of interest by the formula SUV=(activity in tissue [mCi/g]) divided by (injected activity [mCi]/body weight [g]). The tumor to liver ratios (TLRS) were calculated by the formula TLR=SUV of tumor divided by SUV of liver.
Human Tumor Dosimetry. For each patient, the tumor with the highest SUVmax was used, and corresponding calculated tumor dose (TD) for metastatic cancers are shown in Columns 4 and 5 in Table 3. Tumor dose is calculated by the formulae: D(cGy)=100*SUV, for a dose of 5 Ci HD ^18F-FDG; and D(cGy)=150*SUV, for a dose of 7.5 Ci HD ^18F-FDG.

The test system of data set [3] is mammary tumors of PyMT mice. Briefly: PET imaging of PyMT mice with ^18F-FDG. The following applies: PET 1 hour after i.p. 0.5-2.0 mCi. In kind it is in vivo, mouse. As for the experimental part: as §2
(§3) Imaging of mice with ^18F-FDG. […] The tumor to liver ratios (TLRs) were calculated by the formula TLR=counts per pixel in tumor divided by counts per pixel in liver.

The test system of data set [4] is xenografted Notch tumor. Briefly: PET-CT imaging of Notch tumor-bearing mice with ^18F-FDG. It counts as in vivo, mouse. Conditions: nude mice with Notch tumor; PET-CT 1 hour after i.p. 0.5 mCi. Here is the method:
as §1
Animals. All procedures involving mice were conducted in accordance with the National Institutes of Health regulations concerning the use and care of experimental animals. The study of mice was approved by the Albert Einstein College of Medicine (AECOM) Animal Use Committee. Transgenic mice expressing the polyoma middle T antigen (PyMT) in the mammary epithelium under the control of mouse mammary tumor virus (MMTV) long terminal repeat were provided by Dr. W. J. Muller (McMaster University, Ontario, Canada) and then bred at AECOM. At the age of 10 weeks these mice have multiple mammary tumors 0.15-0.17 cm in diameter. […]
Notch tumor-bearing animals were fasted and anesthetized as described above. […] The tumor to normal muscle ratio (TNR) was calculated according to the formula: TNR=average counts per pixel in tumor/average counts per pixel in normal muscle.

Data set [5] concerns mammary tumors of MMTV-neuT mice. Briefly: PET imaging of MMTV-neuT mice with ^18F-FDG. In kind it is in vivo, mouse. The following applies: PET 1 hour after i.p. 0.5-2.0 mCi. As for the experimental part:
as §2, §3

In the case of `O=C[C@H]([18F])[C@@H](O)[C@H](O)[C@H](O)CO` [^18F-FDG, ^18F-2-deoxy-2-fluoro-D-glucose], in data set [1], the “mean (95% CI) time to death” value is reported as 18 (13-23) days. The survival period entry in data set [1] (longest survival) is “up to 30 days”. For the same compound, the “median tumor growth rate” value in data set [1] (therapy group) is reported as 0.020 cm^3/day. For the same compound, the “SUVmax Median” value in data set [2] (metastatic Anaplastic Thyroid cancer, 3 patients) is recorded as 17.4; in data set [2] (metastatic Breast cancer, 10 patients) it was 7.2; in data set [2] (metastatic Cervical cancer, 4 patients), 7.0; in data set [2] (metastatic Esophageal cancer, 5 patients), 11.1; in data set [2] (metastatic Head & Neck cancer, 9 patients), 6.6; in data set [2] (metastatic Lung cancer, 10 patients) it was 5.9. For the same compound, the “SUVmax Median” value in data set [2] (metastatic Lymphoma, 9 patients) is listed as 5.6; in data set [2] (metastatic Melanoma, 7 patients) it was 9.0; in data set [2] (metastatic Ovarian cancer, 9 patients) it was 5.3. The “maximum SUV” value in data set [2] (patient with metastatic esophageal cancer, abdominal metastasis) turned out to be 33; in data set [2] (patient with metastatic non-small cell lung cancer, right mediastinum), 14.8. Besides, the figures for the “tumor to liver ratio (TLR), mean±SD” value in data set [3] and in data set [5] were 1.6±0.1 and 1.6±0.4, respectively. Further, in data set [4], the “tumor to normal muscle ratio (TNR)” value is 3.24 and 3.24±0.20.
